Laboratory results as given in US12043599B2, “Herbicidal compounds” (SYNGENTA PARTICIPATIONS AG, priority 2018, dated 2024).

Key:
Format in all cases: in vivo
Conditions in all cases: 250 g/h, evaluated after 13 days
Setaria faberi (SETFA) [1] = assay: Post-emergence herbicidal glasshouse test, percentage damage
Description: (§1) Seeds of a variety of test species are sown in standard soil in pots (Lolium perenne (LOLPE), Setaria faberi (SETFA), Alopecurus myosuroides (ALOMY), Echinochloa crus-galli (ECHCG), Avena fatua (AVEFA)). After cultivation for one day (pre-emergence) or after 8 days cultivation (post-emergence) under controlled conditions in a glasshouse (at 24/16° C., day/night; 14 hours light; 65% humidity), the plants are sprayed with an aqueous spray solution derived from the formulation of the technical active ingredient in acetone/water (50:50) solution containing 0.5% Tween 20 (polyoxyethelyene sorbitan monolaurate, CAS RN 9005-64-5). Compounds are applied at […]. The test plants are then grown in a glasshouse under controlled conditions in a glasshouse (at 24/16° C., day/night; 14 hours light; 65% humidity) and watered twice daily. After 13 days for pre and post-emergence, the test is evaluated for the percentage damage caused to the plant. The biological activities are shown in the following table on a five point scale (5=80-100%; 4=60-79%; 3=40-59%; 2=20-39%; 1=0-19%).
Using procedures outlines above, wheat and barley crop plants and a weed species (SETFA) are treated post-emergence with compound A11 of the present invention or comparator compound C1 (Compound A-38 from WO2014/096289) at the application rates indicated. The compounds were also applied to wheat in conjunction with the safener compound cloquintocet-mexyl (CQC) at 50 g/ha.

Setaria faberi (SETFA) [2] = assay: Pre-emergence herbicidal glasshouse test, percentage damage
Description: as §1

Lolium perenne (LOLPE) [3] = assay: as above
Description: as §1

[4] = system: Echinochloa crus-galli (ECHCG); assay: as above
Description: as §1

Avena fatua (AVEFA) [5] = assay: as above
Description: as §1

Lolium perenne (LOLPE) [6] = assay: Post-emergence herbicidal glasshouse test, percentage damage
Description: as §1

[7] = system: Echinochloa crus-galli (ECHCG); assay: as above
Description: as §1

Avena fatua (AVEFA) [8] = assay: as above
Description: as §1

Structure (SMILES) | SETFA POST percentage damage (five point scale) (Setaria faberi (SETFA) [1]) | SETFA PRE percentage damage (five point scale) (Setaria faberi (SETFA) [2]) | LOLPE PRE percentage damage (five point scale) (Lolium perenne (LOLPE) [3]) | ECHCG PRE percentage damage (five point scale) [4] | AVEFA PRE percentage damage (five point scale) (Avena fatua (AVEFA) [5]) | LOLPE POST percentage damage (five point scale) (Lolium perenne (LOLPE) [6]) | ECHCG POST percentage damage (five point scale) [7] | AVEFA POST percentage damage (five point scale) (Avena fatua (AVEFA) [8])
CC#Cc1cc(C)c(C2C(=O)CC3(CCN(C(=O)c4ccc(OC)cn4)CC3)CC2=O)c(C)c1 [Compound A121] | 5 (5=80-100%) | 5 (5=80-100%) | 5 (5=80-100%) | 5 (5=80-100%) | 4 (4=60-79%) | 5 (5=80-100%) | 5 (5=80-100%) | 5 (5=80-100%)
CC#Cc1cc(C)c(C2C(=O)CC3(CCN(C(=O)c4cc(C)nc(C)n4)CC3)CC2=O)c(C)c1 [Compound A122] | 5 (5=80-100%) | 5 (5=80-100%) | 5 (5=80-100%) | 5 (5=80-100%) | 5 (5=80-100%) | 5 (5=80-100%) | 5 (5=80-100%) | 5 (5=80-100%)
CC#Cc1cc(C)c(C2C(=O)CC3(CCN(C(=O)c4cocn4)CC3)CC2=O)c(C)c1 [Compound A123] | 5 (5=80-100%) | 5 (5=80-100%) | 5 (5=80-100%) | 5 (5=80-100%) | 5 (5=80-100%) | 5 (5=80-100%) | 5 (5=80-100%) | 5 (5=80-100%)
CC#Cc1cc(C)c(C2C(=O)CC3(CCN(C(=O)CCOC)CC3)CC2=O)c(C)c1 [Compound A124] | 5 (5=80-100%) | 5 (5=80-100%) | 5 (5=80-100%) | 5 (5=80-100%) | 5 (5=80-100%) | 5 (5=80-100%) | 5 (5=80-100%) | 5 (5=80-100%)
CC#Cc1cc(C)c(C2C(=O)CC3(CCN(C(=O)c4ccnc(F)c4)CC3)CC2=O)c(C)c1 [Compound A125] | 5 (5=80-100%) | 5 (5=80-100%) | 5 (5=80-100%) | 5 (5=80-100%) | 5 (5=80-100%) | 5 (5=80-100%) | 5 (5=80-100%) | 5 (5=80-100%)
CC#Cc1cc(C)c(C2C(=O)CC3(CCN(C(=O)c4cnn(C)n4)CC3)CC2=O)c(C)c1 [Compound A126] | 5 (5=80-100%) | 5 (5=80-100%) | 5 (5=80-100%) | 5 (5=80-100%) | 5 (5=80-100%) | 5 (5=80-100%) | 5 (5=80-100%) | 5 (5=80-100%)
CC#Cc1cc(C)c(C2C(=O)CC3(CCN(C(=O)c4cnc(C)cn4)CC3)CC2=O)c(C)c1 [Compound A127] | 5 (5=80-100%) | 5 (5=80-100%) | 5 (5=80-100%) | 5 (5=80-100%) | 5 (5=80-100%) | 5 (5=80-100%) | 5 (5=80-100%) | 5 (5=80-100%)
CC#Cc1cc(C)c(C2C(=O)CC3(CCN(C(=O)C4CCCOC4)CC3)CC2=O)c(C)c1 (centres unmarked) [Compound A128] | 4 (4=60-79%) | 5 (5=80-100%) | 5 (5=80-100%) | 5 (5=80-100%) | 3 (3=40-59%) | 5 (5=80-100%) | 5 (5=80-100%) | 5 (5=80-100%)
CC#Cc1cc(C)c(C2C(=O)CC3(CCN(C(=O)C4CCOC4)CC3)CC2=O)c(C)c1 (centres unmarked) [Compound A129] | 5 (5=80-100%) | 5 (5=80-100%) | 5 (5=80-100%) | 5 (5=80-100%) | 5 (5=80-100%) | 5 (5=80-100%) | 5 (5=80-100%) | 5 (5=80-100%)
CC#Cc1cc(C)c(C2C(=O)CC3(CCN(C(=O)c4ccc(OC)nn4)CC3)CC2=O)c(C)c1 [Compound A132] | 5 (5=80-100%) | 5 (5=80-100%) | 5 (5=80-100%) | 5 (5=80-100%) | 5 (5=80-100%) | 5 (5=80-100%) | 5 (5=80-100%) | 5 (5=80-100%)
CC#Cc1cc(C)c(C2C(=O)CC3(CCN(C(=O)C4COCCO4)CC3)CC2=O)c(C)c1 (centres unmarked) [Compound A133] | 5 (5=80-100%) | 5 (5=80-100%) | 5 (5=80-100%) | 5 (5=80-100%) | 5 (5=80-100%) | 5 (5=80-100%) | 5 (5=80-100%) | 5 (5=80-100%)
CC#Cc1cc(C)c(C2C(=O)CC3(CCN(C(=O)c4nn(C)nc4C)CC3)CC2=O)c(C)c1 [Compound A134] | 5 (5=80-100%) | 5 (5=80-100%) | 5 (5=80-100%) | 5 (5=80-100%) | 5 (5=80-100%) | 5 (5=80-100%) | 5 (5=80-100%) | 5 (5=80-100%)
CC#Cc1cc(C)c(C2C(=O)CC3(CCN(C(=O)c4csnn4)CC3)CC2=O)c(C)c1 [Compound A135] | 5 (5=80-100%) | 5 (5=80-100%) | 5 (5=80-100%) | 5 (5=80-100%) | 5 (5=80-100%) | 5 (5=80-100%) | 5 (5=80-100%) | 5 (5=80-100%)
CC#Cc1cc(C)c(C2C(=O)CC3(CCN(C(=O)c4ccnn4C)CC3)CC2=O)c(C)c1 [Compound A136] | 5 (5=80-100%) | 5 (5=80-100%) | 5 (5=80-100%) | 5 (5=80-100%) | 5 (5=80-100%) | 5 (5=80-100%) | 5 (5=80-100%) | 5 (5=80-100%)
CC#Cc1cc(C)c(C2C(=O)CC3(CCN(C(=O)c4nccnc4C)CC3)CC2=O)c(C)c1 [Compound A138] | 5 (5=80-100%) | 5 (5=80-100%) | 5 (5=80-100%) | 5 (5=80-100%) | 5 (5=80-100%) | 5 (5=80-100%) | 5 (5=80-100%) | 5 (5=80-100%)
CC#Cc1cc(C)c(C2C(=O)CC3(CCN(C(=O)C4CCCO4)CC3)CC2=O)c(C)c1 (centres unmarked) [Compound A139] | 5 (5=80-100%) | 5 (5=80-100%) | 5 (5=80-100%) | 5 (5=80-100%) | 5 (5=80-100%) | 5 (5=80-100%) | 5 (5=80-100%) | 5 (5=80-100%)
